From PubChem BioAssay AID1259407 (Chemical Carcinogenesis Research Information System (CCRIS), 2018) come the findings set out here.

The data set has as its system CCRIS mutagenicity, Ames/micronucleus/aberration tests. The data set can be described thus: CCRIS mutagenicity studies.
[1] abbreviates: Test System: AMES SALMONELLA TYPHIMURIUM, Strain/Indicator: TA97, Metabolic Activation: NONE, Method: PREINCUBATION
The mark [2] stands for this setting: Test System: AMES SALMONELLA TYPHIMURIUM, Strain/Indicator: TA97, Metabolic Activation: RAT, LIVER, S-9, AROCLOR 1254, Method: PREINCUBATION
The mark [3] stands for this setting: Test System: AMES SALMONELLA TYPHIMURIUM, Strain/Indicator: TA100, Metabolic Activation: NONE, Method: PREINCUBATION
[4] abbreviates: Test System: AMES SALMONELLA TYPHIMURIUM, Strain/Indicator: TA100, Metabolic Activation: RAT, LIVER, S-9, AROCLOR 1254, Method: PREINCUBATION
Where [5] appears, read: Test System: AMES SALMONELLA TYPHIMURIUM, Strain/Indicator: TA98 (NR), Metabolic Activation: NONE, Method: STANDARD PLATE.
The mark [6] stands for this setting: Test System: AMES SALMONELLA TYPHIMURIUM, Strain/Indicator: TA98 (NR), Metabolic Activation: S-9, Method: STANDARD PLATE.
Where [7] appears, read: Test System: AMES SALMONELLA TYPHIMURIUM, Strain/Indicator: TA98, Metabolic Activation: NONE, Method: STANDARD PLATE.
Setting [8] is: Test System: AMES SALMONELLA TYPHIMURIUM, Strain/Indicator: TA98, Metabolic Activation: S-9, Method: STANDARD PLATE.
Where [9] appears, read: Test System: AMES SALMONELLA TYPHIMURIUM, Strain/Indicator: TA100 (NR), Metabolic Activation: NONE, Method: STANDARD PLATE.
Where [10] appears, read: Test System: AMES SALMONELLA TYPHIMURIUM, Strain/Indicator: TA100 (NR), Metabolic Activation: S-9, Method: STANDARD PLATE.
The mark [11] stands for this setting: Test System: AMES SALMONELLA TYPHIMURIUM, Strain/Indicator: TA100, Metabolic Activation: NONE, Method: STANDARD PLATE.
The mark [12] stands for this setting: Test System: AMES SALMONELLA TYPHIMURIUM, Strain/Indicator: TA100, Metabolic Activation: S-9, Method: STANDARD PLATE.

The source made the active and inactive calls. The rule behind the calls is not given here.

`O=C(O)COc1ccccc1`: the mutagenic call reads like this: under setting [1], “inactive; negative”; under setting [2], “inactive; negative”; under setting [3], “inactive; negative”; under setting [4], “inactive; negative”; (Test System: AMES SALMONELLA TYPHIMURIUM, Strain/Indicator: TA102, Metabolic Activation: NONE, Method: PREINCUBATION) “inactive; negative”; (Test System: AMES SALMONELLA TYPHIMURIUM, Strain/Indicator: TA102, Metabolic Activation: RAT, LIVER, S-9, AROCLOR 1254, Method: PREINCUBATION) “inactive; negative”.

`O=[N+]([O-])c1ccc(/C=C/c2ccc(Cl)cc2)cc1`: the mutagenic call is “active; positive” under setting [5]; “active; positive” under setting [6]; “active; positive” under setting [7]; “active; positive” under setting [8]; “inactive; negative” under setting [9]; “inactive; negative” under setting [10]. Further, the mutagenic call under setting [11] is “inactive; negative” and the mutagenic call under setting [12] was “active; positive”.

As to `CCOP(=S)(OCC(C)C)SCCl` (stereo not given), the mutagenic call was “inactive; negative” (Test System: AMES SALMONELLA TYPHIMURIUM, Strain/Indicator: TA98, Metabolic Activation: NONE); “inactive; negative” under setting [7]; “inactive; negative” (Test System: AMES SALMONELLA TYPHIMURIUM, Strain/Indicator: TA98, Metabolic Activation: RAT, LIVER, S-9, SODIUM PHENOBARBITAL, Method: STANDARD PLATE); “inactive; negative” (Test System: AMES SALMONELLA TYPHIMURIUM, Strain/Indicator: TA98, Metabolic Activation: S-9); “inactive; negative” (Test System: AMES SALMONELLA TYPHIMURIUM, Strain/Indicator: TA100, Metabolic Activation: NONE); “inactive; negative” under setting [11]. For the same compound, the mutagenic call by setting is: (Test System: AMES SALMONELLA TYPHIMURIUM, Strain/Indicator: TA100, Metabolic Activation: RAT, LIVER, S-9, SODIUM PHENOBARBITAL, Method: STANDARD PLATE) “inactive; negative”; (Test System: AMES SALMONELLA TYPHIMURIUM, Strain/Indicator: TA100, Metabolic Activation: S-9) “inactive; negative”; (Test System: E. COLI, Strain/Indicator: WP2, Metabolic Activation: NONE) “inactive; negative”; (Test System: E. COLI, Strain/Indicator: WP2, Metabolic Activation: RAT, LIVER, S-9, SODIUM PHENOBARBITAL, Method: STANDARD PLATE) “inactive; negative”; (Test System: E. COLI, Strain/Indicator: WP2, Metabolic Activation: S-9) “inactive; negative”; (Test System: E. COLI, Strain/Indicator: WP2 UVRA, Metabolic Activation: NONE) “inactive; negative”. Also, the mutagenic call (Test System: E. COLI, Strain/Indicator: WP2 UVRA, Metabolic Activation: RAT, LIVER, S-9, SODIUM PHENOBARBITAL, Method: STANDARD PLATE) is “inactive; negative” and the mutagenic call (Test System: E. COLI, Strain/Indicator: WP2 UVRA, Metabolic Activation: S-9) is “inactive; negative”.

On to `COc1cc(O)c2c(c1)C(=O)c1c(O)c(C)cc(O)c1C2=O`, for which the mutagenic call runs as follows: (Test System: AMES SALMONELLA TYPHIMURIUM, Strain/Indicator: TA1537, Metabolic Activation: NONE, Method: STANDARD PLATE) “inactive; negative”; (Test System: AMES SALMONELLA TYPHIMURIUM, Strain/Indicator: TA1537, Metabolic Activation: S-9, Method: STANDARD PLATE) “active; positive”.

Turning to `O=[N+]([O-])c1ccc(/C=C/c2cccc([N+](=O)[O-])c2)cc1`, the mutagenic call is, setting by setting: under setting [5], “active; positive”; under setting [6], “inactive; negative”; under setting [7], “active; positive”; under setting [8], “active; positive”; under setting [9], “inactive; negative”; under setting [10], “inactive; negative”. Also, the mutagenic call is, setting by setting: under setting [11], “active; positive”; under setting [12], “active; positive”.

Turning to `CCC(Cl)C(Cl)C(Cl)CC(Cl)C(Cl)C(C)Cl` (stereo not given), the mutagenic call reads like this: (Test System: AMES SALMONELLA TYPHIMURIUM, Strain/Indicator: TA97, Metabolic Activation: HAMSTER, LIVER, S-9, AROCLOR 1254, Method: PREINCUBATION) “inactive; negative”; under setting [1], “inactive; negative”; under setting [2], “inactive; negative”; (Test System: AMES SALMONELLA TYPHIMURIUM, Strain/Indicator: TA98, Metabolic Activation: HAMSTER, LIVER, S-9, AROCLOR 1254 (10%), Method: PREINCUBATION) “inactive; negative”; (Test System: AMES SALMONELLA TYPHIMURIUM, Strain/Indicator: TA98, Metabolic Activation: HAMSTER, LIVER, S-9, AROCLOR 1254, Method: PREINCUBATION) “inactive; negative”; (Test System: AMES SALMONELLA TYPHIMURIUM, Strain/Indicator: TA98, Metabolic Activation: NONE, Method: PREINCUBATION) “inactive; negative”. In addition, the mutagenic call is “inactive; negative” (Test System: AMES SALMONELLA TYPHIMURIUM, Strain/Indicator: TA98, Metabolic Activation: RAT, LIVER, S-9, AROCLOR 1254 (10%), Method: PREINCUBATION); “inactive; negative” (Test System: AMES SALMONELLA TYPHIMURIUM, Strain/Indicator: TA98, Metabolic Activation: RAT, LIVER, S-9, AROCLOR 1254, Method: PREINCUBATION); “inactive; negative” (Test System: AMES SALMONELLA TYPHIMURIUM, Strain/Indicator: TA100, Metabolic Activation: HAMSTER, LIVER, S-9, AROCLOR 1254 (10%), Method: PREINCUBATION); “inactive; negative” (Test System: AMES SALMONELLA TYPHIMURIUM, Strain/Indicator: TA100, Metabolic Activation: HAMSTER, LIVER, S-9, AROCLOR 1254, Method: PREINCUBATION); “inactive; negative” under setting [3]; “inactive; negative” (Test System: AMES SALMONELLA TYPHIMURIUM, Strain/Indicator: TA100, Metabolic Activation: RAT, LIVER, S-9, AROCLOR 1254 (10%), Method: PREINCUBATION). Also, the mutagenic call was “inactive; negative” under setting [4]; “inactive; negative” (Test System: AMES SALMONELLA TYPHIMURIUM, Strain/Indicator: TA1535, Metabolic Activation: HAMSTER, LIVER, S-9, AROCLOR 1254 (10%), Method: PREINCUBATION); “inactive; negative” (Test System: AMES SALMONELLA TYPHIMURIUM, Strain/Indicator: TA1535, Metabolic Activation: HAMSTER, LIVER, S-9, AROCLOR 1254, Method: PREINCUBATION); “inactive; negative” (Test System: AMES SALMONELLA TYPHIMURIUM, Strain/Indicator: TA1535, Metabolic Activation: NONE, Method: PREINCUBATION); “inactive; negative” (Test System: AMES SALMONELLA TYPHIMURIUM, Strain/Indicator: TA1535, Metabolic Activation: RAT, LIVER, S-9, AROCLOR 1254 (10%), Method: PREINCUBATION); “inactive; negative” (Test System: AMES SALMONELLA TYPHIMURIUM, Strain/Indicator: TA1535, Metabolic Activation: RAT, LIVER, S-9, AROCLOR 1254, Method: PREINCUBATION). Also, the mutagenic call was “inactive; negative” (Test System: AMES SALMONELLA TYPHIMURIUM, Strain/Indicator: TA1537, Metabolic Activation: HAMSTER, LIVER, S-9, AROCLOR 1254 (10%), Method: PREINCUBATION); “inactive; negative” (Test System: AMES SALMONELLA TYPHIMURIUM, Strain/Indicator: TA1537, Metabolic Activation: NONE, Method: PREINCUBATION); “inactive; negative” (Test System: AMES SALMONELLA TYPHIMURIUM, Strain/Indicator: TA1537, Metabolic Activation: RAT, LIVER, S-9, AROCLOR 1254 (10%), Method: PREINCUBATION); “active; positive” (Test System: MOUSE LYMPHOMA, Strain/Indicator: L5178Y (TK+/TK-), Metabolic Activation: NONE, Method: SUSPENSION/PLATE).
